Counter-ions that a name gives are not always drawn.
Experiments:
Format in all cases: biochemical
Human PDE4A3 = target: T1, Human PDE4A3 (Homo sapiens, UniProt P27815); test: PDE4A3 Scintillation Proximity Assay (SPA), inhibition of enzyme activity; conditions: geometric mean of 2-7 determinations unless otherwise indicated (b: ≥8 determinations; c: single determination), 1 μM cAMP, 30 min at 25° C., read-out: Human PDE4A FL
T1 construct: His6 (N); FLAG (C); made in house; host or cells: insect cells (baculovirus, pFastBac)
Text: (§1) Human PDE4A3 coding sequence (amino acids 2 to 825 from the sequence with accession number NP_001104779) was cloned into the baculovirus expression vector pFastBac (Invitrogen) engineered to include an N-terminal His6 affinity tag and a c-terminal FLAG affinity tag to aid in purification. The recombinant Bacmid was isolated and used to transfect insect cells to generate a viral stock. To generate cell paste for purification, insect cells were infected with the virus stock and cells were harvested 72 hours after infection. Insect cell paste was lysed and after centrifugation, the supernatant was batch bound to Ni-NTA agarose (GE Healthcare) and eluted with 250 mM imidazole. This eluate was diluted with FLAG buffer (50 mM Tris HCL pH 7.5, 100 mM NaCl, 5% Glycerol, 1 mM TCEP with protease inhibitors) and batch bound to ant-FLAG M2 agarose (Sigma) overnight at 4° C. The agarose was packed into a column, washed with buffer and eluted with buffer containing elute using 250 ug/ml Flag-peptide. Fractions were analyzed using SDS-PAGE Coomassie blue staining and pooled based on purity. Pooled fractions were chromatographed on a S200 120 ml column (GE Healthcare) in 50 mM Tris HCL pH 7.5, 150 mM NaCl, 10% Glycerol, 2 mM TCEP with protease inhibitors. PDE4A3 fractions were analyzed by SDS-PAGE Coomassie blue staining, pooled based on purity, dialyzed against 50 mM Tris HCL pH 7.5, 100 mM NaCl, 20% Glycerol, 2 mM TCEP, frozen and stored at −80° C.
(§2) The PDE4A3, PDE4B1, PDE4C1 and PDE4D3 assays use the Scintillation Proximity Assay (SPA) technology to measure the inhibition of human recombinant […], PDE4C1, and PDE4D3 enzyme activity by compounds in vitro. The PDE4A1, PDE4B3, PDE4C1, and PDE4D3 assays are run in parallel using identical parameters, except for the concentration of enzyme (80 pM PDE4A3, 40 pM PDE4B3, 40 pM PDE4C1 and 10 pM PDE4D). The assays are performed in a 384-well format with 50 uL assay buffer (50 mM TRIS pH7.5; 1.3 mM MgCl2; 0.01% Brij) containing enough PDE4A3, PDE4B1, PDE4C1, and PDE4D to convert ˜20% of substrate (1 μM cAMP consisting of 20 nM 3H-cAMP+[…] cold cAMP) and a range of inhibitors. Reactions are incubated for 30 min at 25° C. The addition of 20 uL of 8 mg/ml yitrium silicate SPA beads (Perkin Elmer) stops the reaction. The plates are sealed (TopSeal, Perkin Elmer) and the beads are allowed to settle for 8 hrs, after which they are read on the Trilux Microbeta overnight.

Human PDE4B1 = target: T2, Human PDE4B1 (Homo sapiens, UniProt Q07343, S133E/S654A/S659A/S661A); test: PDE4B1 Scintillation Proximity Assay (SPA), inhibition of enzyme activity; conditions: geometric mean of 2-7 determinations unless otherwise indicated (b: ≥8 determinations; c: single determination); 1 μM cAMP, 30 min at 25° C.; read-out: Human PDE4B FL; IC50
T2 construct: His6 (N); thrombin cleavage site (N); made in house; host or cells: insect cells (baculovirus, pFastBac)
Description: The recombinant Bacmid was isolated and used to transfect insect cells to generate a viral stock. To generate cell paste for purification, insect cells were infected with the virus stock and cells were harvested 72 hours after infection as described in Seeger, T. F. et al., Brain Research 985 (2003) 113-126. Insect cell paste was lysed and after centrifugation, the supernatant was chromatographed on Ni-NTA agarose (Qiagen) as described in Seeger, T. F. et al., Brain Research 985 (2003) 113-126. Ni-NTA agarose eluting fractions containing PDE4 were pooled, diluted with Q buffer A (20 mM Tris HCl pH 8, 5% glycerol, 1 mM TCEP) to reduce NaCl to ˜100 mM and loaded on a Source 15Q (GE Healthcare) column. After washing with Q buffer A/10% buffer B to baseline, PDE4D was eluted with a gradient from 10% to 60% of Buffer B (20 mM Tris HCl pH 8, 1 M NaCl, 5% glycerol, 1 mM TCEP). PDE4D fractions were analyzed by SDS-PAGE Coomassie blue staining, pooled based on purity, frozen and stored at −80° C.
as §2

Human PDE4C1 = target: T3, Human PDE4C1 (Homo sapiens, UniProt Q08493); test: PDE4C1 Scintillation Proximity Assay (SPA), inhibition of enzyme activity; conditions: geometric mean of 2-7 determinations unless otherwise indicated (b: ≥8 determinations; c: single determination), 1 μM cAMP, 30 min at 25° C., read-out: Human PDE4C FL
T3 construct: His6 (N); FLAG (C); made in house; host or cells: insect cells (baculovirus, pFastBac)
Description: as §1, with “The” for “Human PDE4A3 coding sequence (amino acids 2 to 825 from the sequence with accession number NP_001104779) was cloned into the baculovirus expression vector pFastBac (Invitrogen) engineered to include an N-terminal His6 affinity tag and a c-terminal FLAG affinity tag to aid in purification. The”, “PDE4C1” for “PDE4A3”
as §2

human PDE4D3 = target: T4, human PDE4D3 (Homo sapiens, UniProt Q08499); test: PDE4D3 Scintillation Proximity Assay (SPA), inhibition of enzyme activity; conditions: geometric mean of 2-7 determinations unless otherwise indicated (b: ≥8 determinations; c: single determination); 1 μM cAMP, 30 min at 25° C.; read-out: Human PDE4D FL; IC50
T4 construct: His6 (C); made in house; host or cells: insect cells (baculovirus, pFastBac)
Description: The recombinant Bacmid was isolated and used to transfect insect cells to generate a viral stock. To generate cell paste for purification, insect cells were infected and cells were harvested 72 hours after infection. Insect cell paste was lysed and after centrifugation, the supernatant was chromatographed on Ni-NTA agarose (Qiagen) as described in Seeger, T. F. et al., Brain Research 985 (2003) 113-126. Ni-NTA agarose eluting fractions containing PDE4 were pooled, diluted with Q Buffer A (50 mM Tris HCl pH 8, 4% glycerol, 100 mM NaCl, 1 mM TCEP, Protease inhibitors EDTA-free (Roche)) to reduce NaCl to ˜200 mM, and loaded on a Q Sepharose (GE Healthcare) column. After washing with Q buffer A to baseline, PDE4D was eluted with a gradient from 10% to 60% of Buffer B (50 mM Tris HCl pH 8, 1 M NaCl, 4% glycerol, 1 mM TCEP). PDE4D fractions were analyzed by SDS-PAGE Coomassie blue staining, pooled based on purity, frozen and stored at −80° C.
as §2

T3 sequence (Q08493 2-712): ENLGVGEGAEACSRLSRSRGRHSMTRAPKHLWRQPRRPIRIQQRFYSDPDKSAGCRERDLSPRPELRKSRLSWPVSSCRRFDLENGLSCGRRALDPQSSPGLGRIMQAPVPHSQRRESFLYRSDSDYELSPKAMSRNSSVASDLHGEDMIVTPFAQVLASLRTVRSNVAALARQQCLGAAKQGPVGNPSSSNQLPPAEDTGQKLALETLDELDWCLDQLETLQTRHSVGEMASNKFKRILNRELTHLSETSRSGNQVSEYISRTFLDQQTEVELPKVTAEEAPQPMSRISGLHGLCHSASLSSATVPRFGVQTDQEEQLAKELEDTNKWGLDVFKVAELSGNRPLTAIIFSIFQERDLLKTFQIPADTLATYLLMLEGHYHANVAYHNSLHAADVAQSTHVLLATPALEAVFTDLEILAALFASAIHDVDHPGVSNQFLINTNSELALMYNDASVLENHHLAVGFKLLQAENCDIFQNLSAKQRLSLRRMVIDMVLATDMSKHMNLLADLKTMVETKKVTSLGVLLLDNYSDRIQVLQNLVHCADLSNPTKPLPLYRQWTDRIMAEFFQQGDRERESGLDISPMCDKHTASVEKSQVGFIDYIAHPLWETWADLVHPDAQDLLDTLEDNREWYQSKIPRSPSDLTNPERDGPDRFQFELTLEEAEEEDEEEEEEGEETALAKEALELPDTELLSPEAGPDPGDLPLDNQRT
T2 sequence (Q07343 122-736 S133E/S654A/S659A/S661A): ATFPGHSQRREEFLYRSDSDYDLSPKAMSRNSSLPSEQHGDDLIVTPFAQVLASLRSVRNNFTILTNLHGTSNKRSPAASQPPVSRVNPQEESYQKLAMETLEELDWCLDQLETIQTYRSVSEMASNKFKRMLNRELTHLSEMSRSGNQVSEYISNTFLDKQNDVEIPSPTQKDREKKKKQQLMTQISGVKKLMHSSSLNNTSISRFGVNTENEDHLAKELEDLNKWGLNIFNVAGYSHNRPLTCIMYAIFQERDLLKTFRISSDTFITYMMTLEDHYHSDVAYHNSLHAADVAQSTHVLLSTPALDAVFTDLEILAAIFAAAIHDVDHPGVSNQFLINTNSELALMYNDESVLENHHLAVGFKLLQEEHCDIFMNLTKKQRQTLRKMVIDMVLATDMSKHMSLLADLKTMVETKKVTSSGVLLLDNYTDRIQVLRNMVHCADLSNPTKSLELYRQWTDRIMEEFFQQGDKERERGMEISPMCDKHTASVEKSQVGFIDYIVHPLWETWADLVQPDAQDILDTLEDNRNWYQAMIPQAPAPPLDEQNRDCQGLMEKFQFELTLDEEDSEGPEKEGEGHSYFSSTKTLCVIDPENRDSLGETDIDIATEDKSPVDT
T4 sequence (Q08499 186-808): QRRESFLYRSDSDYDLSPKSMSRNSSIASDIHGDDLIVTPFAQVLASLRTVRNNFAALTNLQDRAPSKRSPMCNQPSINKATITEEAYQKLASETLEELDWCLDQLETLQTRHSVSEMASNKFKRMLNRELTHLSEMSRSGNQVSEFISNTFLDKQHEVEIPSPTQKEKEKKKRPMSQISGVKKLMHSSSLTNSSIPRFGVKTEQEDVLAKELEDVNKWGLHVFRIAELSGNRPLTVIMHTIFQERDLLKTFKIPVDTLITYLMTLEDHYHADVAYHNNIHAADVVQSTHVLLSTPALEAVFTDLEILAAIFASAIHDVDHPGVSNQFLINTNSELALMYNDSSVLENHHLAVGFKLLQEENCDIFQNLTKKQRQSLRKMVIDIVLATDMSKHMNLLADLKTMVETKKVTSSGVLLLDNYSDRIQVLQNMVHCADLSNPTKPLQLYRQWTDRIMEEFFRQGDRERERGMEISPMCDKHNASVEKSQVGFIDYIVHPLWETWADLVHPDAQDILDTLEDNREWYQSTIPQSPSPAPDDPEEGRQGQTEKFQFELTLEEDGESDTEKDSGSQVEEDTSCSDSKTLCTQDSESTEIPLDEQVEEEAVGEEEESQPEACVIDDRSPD
T1 sequence (P27815 2-825 isoform P27815-6): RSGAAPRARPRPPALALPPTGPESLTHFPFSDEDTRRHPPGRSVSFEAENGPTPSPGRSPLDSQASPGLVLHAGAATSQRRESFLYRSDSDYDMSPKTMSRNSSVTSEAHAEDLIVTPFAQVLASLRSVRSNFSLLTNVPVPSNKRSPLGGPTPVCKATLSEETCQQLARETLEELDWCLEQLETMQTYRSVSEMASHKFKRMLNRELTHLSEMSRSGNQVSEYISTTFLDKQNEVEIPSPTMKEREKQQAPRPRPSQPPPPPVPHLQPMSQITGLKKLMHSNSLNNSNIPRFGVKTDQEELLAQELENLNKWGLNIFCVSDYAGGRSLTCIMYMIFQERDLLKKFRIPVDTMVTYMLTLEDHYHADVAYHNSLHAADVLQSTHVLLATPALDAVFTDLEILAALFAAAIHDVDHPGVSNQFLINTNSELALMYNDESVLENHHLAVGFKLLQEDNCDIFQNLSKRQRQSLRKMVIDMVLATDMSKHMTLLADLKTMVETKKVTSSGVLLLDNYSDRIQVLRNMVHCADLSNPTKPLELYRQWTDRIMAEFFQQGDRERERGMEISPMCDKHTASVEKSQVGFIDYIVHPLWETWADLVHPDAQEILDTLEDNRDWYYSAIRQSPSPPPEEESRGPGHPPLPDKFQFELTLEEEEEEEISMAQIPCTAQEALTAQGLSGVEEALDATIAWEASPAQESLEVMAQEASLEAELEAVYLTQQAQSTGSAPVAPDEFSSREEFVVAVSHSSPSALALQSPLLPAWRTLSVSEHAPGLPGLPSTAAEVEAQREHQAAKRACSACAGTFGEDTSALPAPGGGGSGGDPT

SMILES	IC50 (Human PDE4A3)	IC50 (Human PDE4B1)	IC50 (Human PDE4C1)	IC50 (human PDE4D3)
N#Cc1cc(F)c(-c2c(C(=O)N3CCC3)nn3cccnc23)cc1F [Example 46, 4-[2-(azetidin-1-ylcarbonyl)pyrazolo[1,5-a]pyrimidin-3-yl]-2,5-difluorobenzonitrile]	14.7 nM	54.5 nM	44 nM	979 nM
Cc1cc(C#N)c(F)cc1-c1c(C(=O)NC2CCC2)nn2cccnc12 [Example 22, 3-(4-cyano-5-fluoro-2-methylphenyl)-N-cyclobutylpyrazolo[1,5-a]pyrimidine-2-carboxamide]	167 nM	273 nM	124 nM	8810 nM
CCNC(=O)c1nn2cccnc2c1-c1cc(F)c(Cl)cc1C [Example 17, 3-(4-chloro-5-fluoro-2-methylphenyl)-N-ethylpyrazolo[1,5-a]pyrimidine-2-carboxamide]	8.46 nM	21 nM	79.8 nM	967 nM
O=C(NC1CC1(F)F)c1nn2cccnc2c1-c1ccc(Cl)cc1 (stereo not drawn) [Example 40, 3-(4-chlorophenyl)-N-(2,2-difluorocyclopropyl)pyrazolo[1,5-a]pyrimidine-2-carboxamide]		68 nM		2360 nM
O=C(c1nn2cccnc2c1-c1ccnc(OC(F)F)c1)N1CCC1 [Example 37, azetidin-1-yl{3-[2-(difluoromethoxy)pyridin-4-yl]pyrazolo[1,5-a]pyrimidin-2-yl}methanone]		31.5 nM		691 nM
O=C(NC1CC1)c1nn2cccnc2c1-c1ccc(Cl)c(Cl)c1 [Example 32, N-cyclopropyl-3-(3,4-dichlorophenyl)pyrazolo[1,5-a]pyrimidine-2-carboxamide, hydrochloride salt]		9.98 nM		720 nM
O=C(c1nn2cccnc2c1-c1cc(F)c(Cl)c(F)c1)N1CCC1 [Example 41, azetidin-1-yl[3-(4-chloro-3,5-difluorophenyl)pyrazolo[1,5-a]pyrimidin-2-yl]methanone]		5.32 nM		350 nM
O=C(NC1CC1)c1nn2cccnc2c1-c1cncc(Cl)c1 [Example 29, 3-(5-chloropyridin-3-yl)-N-cyclopropylpyrazolo[1,5-a]pyrimidine-2-carboxamide]		132 nM		3010 nM
O=C(NC1CC1)c1nn2cccnc2c1-c1ccnc(OC(F)F)c1 [Example 38, N-cyclopropyl-3-[2-(difluoromethoxy)pyridin-4-yl]pyrazolo[1,5-a]pyrimidine-2-carboxamide, formate salt]		51.1 nM		706 nM
O=C(Nc1nn2cccnc2c1-c1ccc(Cl)c(F)c1)c1ccccc1 [Example 30, N-[3-(4-chloro-3-fluorophenyl)pyrazolo[1,5-a]pyrimidin-2-yl]benzamide]		2180 nM		27000 nM

Continued, values first:

IC50 (Human PDE4A3)	IC50 (Human PDE4B1)	IC50 (Human PDE4C1)	IC50 (human PDE4D3)	SMILES
8.09 nM	23.6 nM	17 nM	680 nM	Cc1ccc(-c2c(C(=O)NC3CC3)nn3cccnc23)cc1F [Example 70, N-cyclopropyl-3-(3-fluoro-4-methylphenyl)pyrazolo[1,5-a]pyrimidine-2-carboxamide]
1 nM	2 nM	4.47 nM	52.6 nM	Cc1cc(Cl)c(F)cc1-c1c(C(=O)NC2CC2)nn2cc(F)cnc12 [Example 64, 3-(4-chloro-5-fluoro-2-methylphenyl)-N-cyclopropyl-6-fluoropyrazolo[1,5-a]pyrimidine-2-carboxamide]
144 nM	488 nM	314 nM	> 16500 nM	Cc1cc(Cl)ccc1-c1c(C(=O)NC(C)C)nn2cccnc12 [Example 51, 3-(4-chloro-2-methylphenyl)-N-(propan-2-yl)pyrazolo[1,5-a]pyrimidine-2-carboxamide]
167 nM	236 nM	76.4 nM	> 16000 nM	O=C(c1nn2cccnc2c1-c1cccc(Cl)c1)N1CCC1 [Example 48, azetidin-1-yl[3-(3-chlorophenyl)pyrazolo[1,5-a]pyrimidin-2-yl]methanone]
745 nM	377 nM	292 nM	> 28000 nM	N#Cc1ccc(-c2c(C(=O)N3CCC3)nn3cccnc23)c(F)c1 [Example 75, 4-[2-(azetidin-1-ylcarbonyl)pyrazolo[1,5-a]pyrimidin-3-yl]-3-fluorobenzonitrile]
3.37 nM	17.3 nM	36.1 nM	92.9 nM	Cc1cc(C#N)c(F)cc1-c1c(C(=O)N2CCC2)nn2cccnc12 [Example 69, 4-[2-(azetidin-1-ylcarbonyl)pyrazolo[1,5-a]pyrimidin-3-yl]-2-fluoro-5-methylbenzonitrile]
	45.8 nM		5990 nM	O=C(c1nn2cccnc2c1-c1cc(Cl)ccc1F)N1CCC1 [Example 74, azetidin-1-yl[3-(5-chloro-2-fluorophenyl)pyrazolo[1,5-a]pyrimidin-2-yl]methanone]
	443 nM		> 30000 nM	N#Cc1ccc(-c2c(C(=O)NC3CC3)nn3cccnc23)c(F)c1 [Example 76, 3-(4-cyano-2-fluorophenyl)-N-cyclopropylpyrazolo[1,5-a]pyrimidine-2-carboxamide]
